In PubChem BioAssay AID248 (DTP/NCI, 2004):
Where “and” joins values, the source holds several entries; their conditions need not be identical. Equal values may be shown once. Toxic doses and inconclusive results are not listed. Cut-off read from the data, not from the text of the source: active = T/C of 150% or more; inactive = T/C below 125%.

Test system: L1210 leukemia ip in BDF1 mice, survival T/C
Experiment: NCI In Vivo Anticancer Drug Screen. Data for tumor model L1210 Leukemia (intraperitoneal) in B6D2F1 (BDF1) mice
Details: endpoint: mean survival time, higher = longer survival
Summary of the method: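 Transplantable tumor model; survival measured in treated vs vehicle control mice. Value = treated/control.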

[1] = dose: 100.0 mg/kg/injection, schedule: Q04DX003 (ip), vehicle: saline
[2] = dose: 200.0 mg/kg/injection, schedule: Q04DX003 (ip), vehicle: saline
[3] = dose: 400.0 mg/kg/injection, schedule: Q04DX003 (ip), vehicle: saline
[4] = dose: 100.0 mg/kg/injection, schedule: Q01DX001 (ip), vehicle: Klucel (hydroxypropylcellulose) (HPC)
[5] = dose: 200.0 mg/kg/injection, schedule: Q01DX001 (ip), vehicle: Klucel (hydroxypropylcellulose) (HPC)
[6] = dose: 400.0 mg/kg/injection, schedule: Q01DX001 (ip), vehicle: Klucel (hydroxypropylcellulose) (HPC)
[7] = dose: 100.0 mg/kg/injection, schedule: Q01DX001 (ip), vehicle: saline
[8] = dose: 200.0 mg/kg/injection, schedule: Q01DX001 (ip), vehicle: saline
[9] = dose: 100.0 mg/kg/injection, schedule: Q01DX009 (ip), vehicle: Klucel (hydroxypropylcellulose) (HPC)
[10] = dose: 200.0 mg/kg/injection, schedule: Q01DX009 (ip), vehicle: Klucel (hydroxypropylcellulose) (HPC)
[11] = dose: 400.0 mg/kg/injection, schedule: Q01DX009 (ip), vehicle: Klucel (hydroxypropylcellulose) (HPC)
[12] = dose: 100.0 mg/kg/injection, schedule: Q01DX001 (ip), vehicle: carboxymethylcellulose (CMC)
[13] = dose: 200.0 mg/kg/injection, schedule: Q01DX001 (ip), vehicle: carboxymethylcellulose (CMC)
[14] = dose: 400.0 mg/kg/injection, schedule: Q01DX001 (ip), vehicle: carboxymethylcellulose (CMC)

Measured: T/C

Cc1ccc(S(=O)(=O)NCCCCCC(=O)OCc2ccccc2)cc1
inactive: dose: 50.0 mg/kg/injection, schedule: Q01DX009 (ip), vehicle: saline 97 % of control | dose: 100.0 mg/kg/injection, schedule: Q01DX009 (ip), vehicle: saline 94 % of control and 100 % of control | [1] 108 % of control | dose: 200.0 mg/kg/injection, schedule: Q01DX009 (ip), vehicle: saline 96 % of control and 104 % of control | [2] 101 % of control | dose: 400.0 mg/kg/injection, schedule: Q01DX009 (ip), vehicle: saline 94 % of control | [3] 100 % of control

COc1ccc(-n2c(=O)c(N=Nc3ccccc3C)c(O)n(-c3ccccc3Cl)c2=S)cc1
inactive: [4] 107 % of control | [5] 94 % of control | [6] 102 % of control

CCCCCCCCc1ccccc1
inactive: dose: 100.0 mg/kg/injection, schedule: Q04DX002 (ip), vehicle: saline 99 % of control | dose: 200.0 mg/kg/injection, schedule: Q04DX002 (ip), vehicle: saline 96 % of control | dose: 400.0 mg/kg/injection, schedule: Q04DX002 (ip), vehicle: saline 99 % of control

O=C(CC(=O)c1ccccc1)Nc1ccccn1
inactive: [7] 101 % of control | [8] 98 % of control

CCOC(=O)/C(C)=C\C1C(C)=CC(=O)CC1(C)C (stereo not drawn)
inactive: dose: 100.0 mg/kg/injection, schedule: Q04DX003 (ip), vehicle: Klucel (hydroxypropylcellulose) (HPC) 102 % of control | dose: 200.0 mg/kg/injection, schedule: Q04DX003 (ip), vehicle: Klucel (hydroxypropylcellulose) (HPC) 95 % of control | dose: 400.0 mg/kg/injection, schedule: Q04DX003 (ip), vehicle: Klucel (hydroxypropylcellulose) (HPC) 100 % of control

Cc1ccc(Cl)cc1NC(=O)c1ccc(Cl)cc1
inactive: [9] 99 % of control | [1] 114 % of control | [10] 89 % of control | [2] 97 % of control | [11] 93 % of control | [3] 119 % of control

COc1ccc(Cl)cc1NC(=O)Nc1cc(C)ccn1
inactive: [9] 104 % of control | [10] 100 % of control | [11] 88 % of control

Nc1cc(SC(c2ccccc2)c2ccccc2)c(N)c(N)n1
inactive: dose: 75.0 mg/kg/injection, schedule: Q01DX001 (ip), vehicle: DMSO 96 % of control | dose: 150.0 mg/kg/injection, schedule: Q01DX001 (ip), vehicle: DMSO 88 % of control

Cc1cn(O)c2nc(N)nc(=O)c-2n1
inactive: dose: 25.0 mg/kg/injection, schedule: Q01DX001 (ip), vehicle: Klucel (hydroxypropylcellulose) (HPC) 97 % of control | dose: 50.0 mg/kg/injection, schedule: Q01DX001 (ip), vehicle: Klucel (hydroxypropylcellulose) (HPC) 103 % of control | [4] 100 % of control and 101 % of control

O=S(=O)(c1ccccc1)N1CCOC1=S
inactive: dose: 100.0 mg/kg/injection, schedule: Q04DX003 (ip), vehicle: acetone 93 % of control | dose: 200.0 mg/kg/injection, schedule: Q04DX003 (ip), vehicle: acetone 101 % of control | dose: 400.0 mg/kg/injection, schedule: Q04DX003 (ip), vehicle: acetone 93 % of control

CC(=O)OCC(OC(C)=O)C1OCOC2COCOC21 (stereo not drawn)
inactive: [4] 108 % of control | [5] 89 % of control | [6] 101 % of control

COC(=O)c1ccc(C(=O)NCCCc2c(C)nc(N)[nH]c2=O)cc1
inactive: [4] 97 % of control | [5] 92 % of control | [6] 92 % of control

COc1cccc(C2N(Cc3ccccc3OC)CCCN2Cc2ccccc2OC)c1
inactive: dose: 50.0 mg/kg/injection, schedule: Q01DX001 (ip), vehicle: carboxymethylcellulose (CMC) 93 % of control | [12] 102 % of control | [13] 106 % of control | [14] 102 % of control

NC(=O)Nc1ccc2c(c1)Cc1cc([N+](=O)[O-])ccc1-2
inactive: [12] 100 % of control | [13] 105 % of control | [14] 91 % of control

COc1cc(-c2cc(OC)c(N=N/C(=N/Nc3ccc([N+](=O)[O-])cc3)c3ccc([N+](=O)[O-])cc3)cc2Cl)c(Cl)cc1N=N/C(=N\Nc1ccc([N+](=O)[O-])cc1)c1ccc([N+](=O)[O-])cc1
inactive: dose: 50.0 mg/kg/injection, schedule: Q01DX001 (ip), vehicle: saline 103 % of control | [7] 94 % of control | [8] 103 % of control | dose: 400.0 mg/kg/injection, schedule: Q01DX001 (ip), vehicle: saline 94 % of control

OC(Cc1ccccc1)(c1ccc(Cl)cc1)c1ccc(Cl)cc1
inactive: [4] 107 % of control | [5] 95 % of control | [6] 101 % of control

O=[N+]([O-])c1ccc(OCc2ccc(S(=O)(=O)F)cc2)c(Cl)c1
inactive: dose: 100.0 mg/kg/injection, schedule: Q04DX003 (ip), vehicle: other 97 % of control | dose: 200.0 mg/kg/injection, schedule: Q04DX003 (ip), vehicle: other 97 % of control | dose: 400.0 mg/kg/injection, schedule: Q04DX003 (ip), vehicle: other 92 % of control
